Data: patent US20250057858A1, “COMPOSITIONS AND METHODS FOR TREATING NEUROLOGICAL DISORDERS WITH COMBINATION PRODUCTS” (Neurotech International Ltd, priority 2021, published 2025)

Key:
[1] = system: cells in an excitotoxic cell injury paradigm; test: Cell death in an excitotoxic cell injury paradigm; format: cell-based
Description: Neuronal viability was quantified using MTT [3-(4,5-dimethylthiazol-2-yl-)-2,5-diphenyl-2H-tetrazolium bromide; Sigma]. NTI164 treated celled were able to increase the number of “healthy” cells under basal conditions following short term glutamate exposure. Cellular excitotoxicity was achieved via glutamate activation (3 mM). NTI164 was able to stimulate cell growth after short term glutamate induced “insult”.

COX-2 [2] = test: COX-2 immunohistochemistry in human derived microglial cells (Example 4); format: cell-based; details: for COX-2 expression (Avg +/− SEM): 2 μg/ml, N=9
Description: Immunohistochemistry (Protein Level) Assay: Cells were fixed for 10 min with 4% paraformaldehyde (PFA) in PBS. After 3×5 minutes washing with PBS, cells were incubated with primary antibodies (anti-COX2) 1:1000 overnight at 4° C., and after 3×5 minutes washing in PBS, cells were then incubated in appropriate fluorescent secondary antibody 1:250 (Invitrogen) for 2 hours at room temperature. After a final wash, as previous, cells nuclei were stained with DAPI in the mounting media. Photomicrographs were taken of the cells in three fields of view per well from duplicate wells and analysed using Fiji for area coverage of each marker.
(§1) 500 mg of dried plant material of NTI164 is suspended in 20 ml of absolute ethanol (using 50 ml blue top falcon tubes appropriate for centrifugation) and stirred/shaken vigorously for 60 seconds. The tubes are then placed in a sonication bath for 10 mins at 35-40 C. Upon completion of the sonication samples are then placed in a tray shaker (200 rpm) for 30 minutes at room temperature. Once completed the samples are then centrifuged at 4400 rpm for 5 minutes. The supernatant is collected for testing and development.
Units used to describe treatments for test products and concentrations for NTI164. • a. 1/1000 dilution of extract—10 µL (stock material is NTI164—10 µL, which equates to 2 μg/ml of CBDA) • b. 1/3000 dilution of extract—3 µL (stock material is NTI164—3 µL, which equates to […] of CBDA) • c. 1/10000 dilution of extract—1 µL (stock material is NTI164—1 µL, which equates to 0.1 μg/ml of CBDA)
For the CBD sample, a pure standard (in powder form) was used. CBD 98% isolate was purchased as a reference standard from LGC Standards (London UK) (CAS No. 13956-29-1). The CBD standard reference was prepared at concentration of 1 mg/ml (in acetonitrile). CBD dilutions were made in acetonitrile as follows: 2 μg/ml; 6 μg/ml; and 0.1 μg/ml.
The final concentration of NTI164 (CBDA equivalent) and CBD that was used in these studies was 2 μg/ml.

TNF-alpha = test: Multiplex cytokine assay, TNF-alpha, microglial cells (Example 4); format: cell-based, human; details: 2 μg/ml
Description: (§2) Multiplex Cytokine/Chemokine Assay: Microglia media harvested following treatment initiation was centrifuged briefly to remove particulates (300 g for 10 min). Cytokine and chemokine levels in the microglial media were measured using a Bio-Plex 200 with a 96-well magnetic plate assay according to the manufacturer's instructions (Bio-Rad). Cytokines and chemokines measured included IL-1α, IL-1β, IL-2, IL-6, IL-10, IL-12 (p70), IL-13, G-CSF, GM-CSF, IFNγ, TNFα, CXCL1 (KC), CCL2 (MCP-1), and CCL5 (RANTES). All samples were run in duplicate and data were analyzed with the Bio-Plex Manager software.
as §1
(§3) Units used to describe treatments for test products and concentrations for NTI164. • a. 1/1000 dilution of extract—10 µL (stock material is NTI164—10 µL, which equates to 2 μg/ml of CBDA) • b. […]

IL-12 = test: Multiplex cytokine assay, IL-12, microglial cells (Example 4); format: cell-based, human; details: 2 μg/ml
Description: as §2, §1, §3

COX-2 [3] = test: COX-2 protein, NTI164 plus prednisone (Example 8); format: cell-based; details: PDN 5 uM; NTI164 7.5 ug/ml; Interleukin & Interferon activation =1
Description: Cells were fixed for 10 min with 4% paraformaldehyde (PFA) in PBS. After 3×5 minutes washing with PBS, cells were incubated with primary antibodies. (anti-COX2) 1:1000 overnight at 4° C., and after 3×5 minutes washing in PBS, cells were then incubated in appropriate fluorescent secondary antibody 1:250 (Invitrogen) for 2 hours at room temperature. After a final wash, as previous, cells nuclei were stained with DAPI in the mounting media. Photomicrographs were taken of the cells in three fields of view per well from duplicate wells and analysed using Fiji for area coverage of each marker.
Treatment groups include: • (1) Control: PBS Buffer • (2) Positive control: Inflammatory stimulation by Interferon gamma and Interleukin-1B activation Prednisone (PDN) concentration 5 uM • (3) Combination therapy: Prednisone (PDN) 5 uM+NTI164 concentration 7.5ug/ml
Result Analysis: Calculated as % reduction in inflammation, PDN versus Combination therapy (prednisone 5 uM+NTI164 concentration 7.5ug/ml). Student's t-test was used for statistical analysis.

TNFα = TNFα in microglial culture media, NTI164 plus psylocibin (Example 9); format: cell-based; details: PBS Control 1.00, Positive activation I&I 10.67
Description: Microglia media harvested following treatment initiation was centrifuged briefly to remove particulates (300 g for 10 min). The level of TNFα in the microglial culture media was measured using a Bio-Plex 200 with a 96-well magnetic plate assay according to the manufacturer's instructions (Bio-Rad). The samples were run in duplicate that were averaged for analysis. At least three samples per group were run.

[4] = exposure 1 hour after inflammatory insult
[5] = exposure 1 hour prior to inflammatory insult
[6] = Interleukin and Interferon activation

C=C(C)[C@@H]1CCC(C)=C[C@H]1c1c(O)cc(CCCCC)cc1O [CBD, cannabidiol]
cell death / toxicity [1]: toxic
P, positive control vs treatment (COX-2) (COX-2 [2]; [4]): P = 0.0566
COX-2 expression (Avg +/− SEM) (COX-2 [2]; [4]): 76.32 +/− 7.95 (SEM)
P, positive control vs treatment (COX-2) (COX-2 [2]; [5]): P = 0.3237
COX-2 expression (Avg +/− SEM) (COX-2 [2]; [5]): 84.82 +/− 7.65 (SEM)
Statistical Significance Reduction Compared to Control Alone (P), TNF-alpha (TNF-alpha): = 0.0005
TNF-alpha, Average (TNF-alpha; [6]): 71.13
Statistical Significance Reduction Compared to Control Alone (P), IL-12 (IL-12): = 0.008
IL-12, Average (IL-12; [6]): 84.40

C[C@]12C=CC(=O)C=C1CC[C@@H]1[C@@H]2C(=O)C[C@@]2(C)[C@H]1CC[C@]2(O)C(=O)CO [PDN, Prednisone]
COX-2 Protein (COX-2 [3]): 0.888

CN(C)CCc1c[nH]c2cccc(OP(=O)(O)O)c12 [SubP (Psylocibin), Psylocibin]
TNF-ALPHA ASSESSMENTS RESULTS (TNFα; 1 ug/ml): 4.87
TNF-ALPHA ASSESSMENTS RESULTS (TNFα; 5 ug/ml): 9.17
